Laboratory results taken from patent US20250221988A1 (Cullgen (Shanghai), Inc., priority 2022, published 2025).
pIC50: −log10 of the molar value. Like-named read-outs stand apart in the source and are kept apart here.

Assays:
Format in all cases: cell-based
MV4;11 cells = assay: Cell viability assay (CellTiter-Glo) in MV4;11 cells; settings: MV4;11 cells, three days, read-out: MV4; for pIC50: Homo sapiens, MV4-11, 72 h, compound alone, 11 IC50; for IC50: with 10 nM gilteritinib, 11 IC50 (nM) + 10 nM Gil
In short: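 5000 cells/well in RPMI 1640 or DMEM with 10% FBS, treated with 8- or 12-point 3-fold compound dilutions, with or without gilteritinib (10 nM for MV4;11, 20 nM for MOLM-13). Viability by CellTiter-Glo after three days; IC50 by nonlinear least-squares regression.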

GSPT1 = GSPT1 (Homo sapiens, UniProt P15170+Q96SW2); assay: Immunoblotting of GSPT1 in MOLM-13 cells; set-up: endogenous in cells; host or cells: MOLM-13; settings: indicated concentrations, 16 hours
Description: (§1) Cell Culture: RS4;11, MV4;11, MOLM-13 and other cells were cultured at 37° C. with 5% CO2 in RPMI 1640 or DMEM Medium supplemented with 10% fetal bovine serum. Cells were authenticated using the short tandem repeat (STR) assays. Mycoplasma test results were negative.
Antibodies and reagents: Rabbit anti-FLT3 antibody (3462S) was purchased from Cell Signaling Technology. Rabbit anti-GSPT1 antibody (ab126090) was purchased from Abeam. HRP-conjugated anti-α-tubulin antibody was produced in house. Media and other cell culture reagents were purchased from Thermo Fisher. The CellTiter-Glo Luminescent Assay kit was purchased from Promega.
Immunoblotting: Cultured cells were washed with cold PBS once and lysed in cold RIPA buffer supplemented with protease inhibitors and phosphatase inhibitors (Beyotime Biotechnology). The solutions were then incubated at 4° C. for 30 minutes with gentle agitation to fully lyse cells. Cell lysates were centrifuged at 13,000 rpm for 10 minutes at 4° C. and pellets were discarded. Total protein concentrations in the lysates were determined by BCA assays (Beyotime Biotechnology). Cell lysates were mixed with Laemmli loading buffer to 1× and heated at 99° C. for 5 min. Proteins were resolved on SDS-PAGE and visualized by chemiluminescence. Images were taken by a ChemiDoc MP Imaging system (Bio-Rad). Protein bands were quantitated using the accompanied software provided by Bio-Rad.

MOLM-13 cells = assay: Cell viability assay (CellTiter-Glo) in MOLM-13 cells; settings: MOLM-13 cells; for pIC50: Homo sapiens, 72 h, compound alone, read-out: MOLM-13 IC50; for pIC50 / IC50: three days; for IC50: with gilteritinib, read-out: MOLM-13 IC50 (nM) + 10 nM Gil
NCI-H1155 cells = assay: Cell viability assay in NCI-H1155 cells; settings: Homo sapiens, read-out: NCI-H115 IC50
Description: as §1
Cell viability assays: Cells were seeded at a density of 5000 cells per well in 96-well assay plates and treated with test compounds following a 8-point or 12-point 3-fold serial dilution. Three days later, cell viability was determined using the CellTiter-Glo assay kit according to the manufacturer's instructions. The dose-response curves were determined and IC50 values were calculated using the GraphPad Prism software following a nonlinear regression (least squares fit) method.
The compounds were tested in HEL, 22RV1, NCI-H82 or NCI-H1155 cells.

Chain of GSPT1 (P15170 whole entry): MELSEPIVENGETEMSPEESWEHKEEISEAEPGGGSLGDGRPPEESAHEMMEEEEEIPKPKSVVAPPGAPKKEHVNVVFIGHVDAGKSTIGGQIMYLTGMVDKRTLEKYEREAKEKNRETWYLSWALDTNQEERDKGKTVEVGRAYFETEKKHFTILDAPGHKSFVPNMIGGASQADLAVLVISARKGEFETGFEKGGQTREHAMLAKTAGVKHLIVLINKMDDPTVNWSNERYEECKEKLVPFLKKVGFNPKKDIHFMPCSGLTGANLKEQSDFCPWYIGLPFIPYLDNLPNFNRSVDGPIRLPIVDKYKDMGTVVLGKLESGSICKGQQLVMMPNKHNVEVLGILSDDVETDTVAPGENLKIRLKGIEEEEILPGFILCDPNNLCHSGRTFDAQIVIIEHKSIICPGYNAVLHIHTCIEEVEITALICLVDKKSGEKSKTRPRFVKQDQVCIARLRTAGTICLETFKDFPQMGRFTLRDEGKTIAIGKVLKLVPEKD
Chain of GSPT1 (Q96SW2 whole entry): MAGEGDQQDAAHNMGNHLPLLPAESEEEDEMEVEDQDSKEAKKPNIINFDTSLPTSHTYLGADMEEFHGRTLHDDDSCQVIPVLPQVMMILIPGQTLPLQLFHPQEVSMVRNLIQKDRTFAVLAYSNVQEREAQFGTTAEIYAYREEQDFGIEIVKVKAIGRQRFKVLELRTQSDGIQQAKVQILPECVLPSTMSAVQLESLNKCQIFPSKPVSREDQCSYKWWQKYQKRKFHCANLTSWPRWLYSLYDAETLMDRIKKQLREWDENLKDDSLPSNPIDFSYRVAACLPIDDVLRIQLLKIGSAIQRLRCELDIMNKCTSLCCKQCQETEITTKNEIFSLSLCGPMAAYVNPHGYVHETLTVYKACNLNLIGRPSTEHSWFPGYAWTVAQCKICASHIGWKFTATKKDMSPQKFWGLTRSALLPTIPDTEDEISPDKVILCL
Chain of GSPT1 (Q16531 whole entry partner): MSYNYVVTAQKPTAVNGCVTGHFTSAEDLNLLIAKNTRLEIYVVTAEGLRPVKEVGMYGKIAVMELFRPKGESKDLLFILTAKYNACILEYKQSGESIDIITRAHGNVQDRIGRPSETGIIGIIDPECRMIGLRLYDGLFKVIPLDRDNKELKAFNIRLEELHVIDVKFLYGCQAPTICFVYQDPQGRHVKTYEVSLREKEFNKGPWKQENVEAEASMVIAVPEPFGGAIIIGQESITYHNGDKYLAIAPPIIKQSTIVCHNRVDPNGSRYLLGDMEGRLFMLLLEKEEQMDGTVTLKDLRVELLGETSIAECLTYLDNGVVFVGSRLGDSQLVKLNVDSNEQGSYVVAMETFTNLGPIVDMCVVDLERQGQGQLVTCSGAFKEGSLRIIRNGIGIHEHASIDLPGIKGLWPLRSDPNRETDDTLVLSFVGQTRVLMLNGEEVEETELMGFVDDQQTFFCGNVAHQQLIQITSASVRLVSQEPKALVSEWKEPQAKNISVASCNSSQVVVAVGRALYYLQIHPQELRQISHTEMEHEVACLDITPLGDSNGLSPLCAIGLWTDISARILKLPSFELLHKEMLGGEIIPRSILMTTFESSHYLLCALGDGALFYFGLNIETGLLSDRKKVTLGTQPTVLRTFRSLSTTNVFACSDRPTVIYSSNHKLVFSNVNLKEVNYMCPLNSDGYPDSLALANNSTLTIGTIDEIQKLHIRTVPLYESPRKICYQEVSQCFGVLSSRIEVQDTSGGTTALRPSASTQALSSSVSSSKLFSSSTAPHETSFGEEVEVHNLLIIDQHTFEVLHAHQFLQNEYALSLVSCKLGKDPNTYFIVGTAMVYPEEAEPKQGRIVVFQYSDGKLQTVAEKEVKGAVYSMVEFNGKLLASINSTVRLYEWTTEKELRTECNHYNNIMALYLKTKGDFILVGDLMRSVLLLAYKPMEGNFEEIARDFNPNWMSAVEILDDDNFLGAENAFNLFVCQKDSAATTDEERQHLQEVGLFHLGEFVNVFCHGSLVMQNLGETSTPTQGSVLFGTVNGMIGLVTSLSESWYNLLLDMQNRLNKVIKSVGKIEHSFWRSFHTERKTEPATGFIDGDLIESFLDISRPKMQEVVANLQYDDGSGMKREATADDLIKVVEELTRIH

pIC50 (MV4;11 cells)	IC50 (MV4;11 cells) [nM]	pIC50 (MOLM-13 cells)	IC50 (MOLM-13 cells) [nM]	pIC50 (NCI-H1155 cells)	SMILES	small molecule-mediated targeted degradation of GSPT1 (GSPT1)	sensitization of AML cells to GSPT1 degraders by FLT3 inhibition (MOLM-13 cells; with or without 20 nM gilteritinib, 3 days)
> 8.00	< 10	> 8.00	< 10	–	O=C1CCC(N2C(=O)c3ccc(NC[C@H]4C[C@H](n5cc(-c6ncc(F)c7cccnc67)c(C6CC6)n5)C4)cc3C2=O)C(=O)N1 (stereo partly drawn) [GS-697, 5-(((Trans-3-(3-cyclopropyl-4-(5-fluoro-1,7-naphthyridin-8-yl)-1H-pyrazol-1-yl)cyclobutyl)methyl)amino)-2-(2,6-dioxopiperidin-3-yl)isoindoline-1,3-dione]	targeted degradation of GSPT1	–
–	–	–	–	7.00 to 8.00	CNc1cccc(-c2cn([C@H]3C[C@H](CNc4ccc5c(c4)CN(C4CCC(=O)NC4=O)C5=O)C3)nc2C2CC2)n1 (relative stereo) [GS-811, 3-(5-(((Trans-3-(3-cyclopropyl-4-(6-(methylamino)pyridin-2-yl)-1H-pyrazol-1-yl)cyclobutyl)methyl)amino)-1-oxoisoindolin-2-yl)piperidine-2,6-dione]	–	–
–	–	–	–	> 8.00	Cc1nc(-c2cn([C@H]3C[C@H](CNc4ccc5c(c4)CN(C4CCC(=O)NC4=O)C5=O)C3)nc2C2CC2)c(F)cc1F (stereo partly drawn) [GS-809, 3-(5-(((trans-3-(3-cyclopropyl-4-(3,5-difluoro-6-methylpyridin-2-yl)-1H-pyrazol-1-yl)cyclobutyl)methyl)amino)-1-oxoisoindolin-2-yl)piperidine-2,6-dione]	–	–
–	–	–	–	7.00 to 8.00	Nc1cccc(-c2cn([C@H]3C[C@H](CNc4ccc5c(c4)CN(C4CCC(=O)NC4=O)C5=O)C3)nc2C2CC2)n1 (stereo partly drawn) [GS-810, 3-(5-(((Trans-3-(4-(6-aminopyridin-2-yl)-3-cyclopropyl-1H-pyrazol-1-yl)cyclobutyl)methyl)amino)-1-oxoisoindolin-2-yl)piperidine-2,6-dione]	–	–
< 6.00	–	< 6.00	–	–	CN1CCC(Nc2cn([C@H]3C[C@H](CNc4ccc5c(c4)C(=O)N(C4CCC(=O)NC4=O)C5=O)C3)nc2C2CC2)CC1 (stereo partly drawn) [GS-666, 5-(((Trans-3-(3-cyclopropyl-4-((1-methylpiperidin-4-yl)amino)-1H-pyrazol-1-yl)cyclobutyl)methyl)amino)-2-(2,6-dioxopiperidin-3-yl)isoindoline-1,3-dione]	–	–
< 6.00	10 to 100	< 6.00	100 to 1000	–	O=C1CCC(N2C(=O)c3ccc(NC[C@H]4C[C@H](n5cc(-c6ccccc6N6CCNCC6)c(C6CC6)n5)C4)cc3C2=O)C(=O)N1 (stereo partly drawn) [GS-652, 5-(((Trans-3-(3-cyclopropyl-4-(2-(piperazin-1-yl)phenyl)-1H-pyrazol-1-yl)cyclobutyl)methyl)amino)-2-(2,6-dioxopiperidin-3-yl)isoindoline-1,3-dione]	–	–
7.00 to 8.00	< 10	6.00 to 7.00	10 to 100	–	Cc1nc(-c2cn([C@H]3C[C@H](CCc4ccc5c(c4)CN(C4CCC(=O)NC4=O)C5=O)C3)nc2C2CC2)ccc1F (stereo partly drawn) [GS-753, 3-(5-(2-(Trans-3-(3-cyclopropyl-4-(5-fluoro-6-methylpyridin-2-yl)-1H-pyrazol-1-yl)cyclobutyl)ethyl)-1-oxoisoindolin-2-yl)piperidine-2,6-dione]	–	–
> 8.00	< 10	7.00 to 8.00	< 10	–	Cc1cc(F)cnc1-c1cn([C@H]2C[C@H](CNc3ccc4c(c3)C(=O)N(C3CCC(=O)NC3=O)C4=O)C2)nc1C1CC1 (stereo partly drawn) [GS-717, 5-(((Trans-3-(3-cyclopropyl-4-(5-fluoro-3-methylpyridin-2-yl)-1H-pyrazol-1-yl)cyclobutyl)methyl)amino)-2-(2,6-dioxopiperidin-3-yl)isoindoline-1,3-dione]	–	–
< 6.00	100 to 1000	< 6.00	100 to 1000	–	Cn1ncc2cnc(-c3cn([C@H]4C[C@H](COc5ccc6c(c5)C(=O)N(C5CCC(=O)NC5=O)C6=O)C4)nc3C3CC3)cc21 (stereo partly drawn) [GS-761, 5-((Trans-3-(3-cyclopropyl-4-(1-methyl-1H-pyrazolo[4,3-c]pyridin-6-yl)-1H-pyrazol-1-yl)cyclobutyl)methoxy)-2-(2,6-dioxopiperidin-3-yl)isoindoline-1,3-dione]	–	–
7.00 to 8.00	< 10	7.00 to 8.00	< 10	–	NC1CCN(c2ccc3ncc(-c4cn([C@H]5C[C@H](CNc6ccc7c(c6)C(=O)N(C6CCC(=O)NC6=O)C7=O)C5)nc4C4CC4)nc3c2)C1 (stereo partly drawn) [GS-706, 5-(((Trans-3-(4-(7-(3-aminopyrrolidin-1-yl)quinoxalin-2-yl)-3-cyclopropyl-1H-pyrazol-1-yl)cyclobutyl)methyl)amino)-2-(2,6-dioxopiperidin-3-yl)isoindoline-1,3-dione]	–	–
> 8.00	< 10	> 8.00	< 10	–	O=C1CCC(N2C(=O)c3ccc(NCC4CC(n5cc(-c6cnc7c(NCC(O)CO)cccc7n6)c(C6CC6)n5)C4)cc3C2=O)C(=O)N1 (stereo not drawn) [GS-702, 5-(((trans-3-(3-cyclopropyl-4-(5-((2,3-dihydroxypropyl)amino)quinoxalin-2-yl)-1-pyrazol-1-yl)cyclobutyl)methyl)amino)-2-(2,6-dioxopiperidin-3-yl)isoindoline-1,3-dione]	–	–
> 8.00	< 10	7.00 to 8.00	< 10	–	O=C1CCC(N2C(=O)c3ccc(NC[C@H]4C[C@H](n5cc(-c6cc7c(cn6)cnn7[C@H]6CC[C@@H](O)CC6)c(C6CC6)n5)C4)cc3C2=O)C(=O)N1 (stereo partly shown) [GS-782]	–	–
7.00 to 8.00	< 10	7.00 to 8.00	< 10	–	Cc1cccc(-c2cn(C3CC4(CC(CCNc5ccc6c(c5)C(=O)N(C5CCC(=O)NC5=O)C6=O)C4)C3)nc2C2CC2)n1 (stereo not shown) [GS-749, 5-((2-(6-(3-Cyclopropyl-4-(6-methylpyridin-2-yl)-1H-pyrazol-1-yl)spiro[3.3]heptan-2-yl)ethyl)amino)-2-(2,6-dioxopiperidin-3-yl)isoindoline-1,3-dione]	–	FLT3 inhibition sensitizes AML cells

SMILES	pIC50 (MV4;11 cells)	IC50 (MV4;11 cells) [nM]	pIC50 (MOLM-13 cells)	IC50 (MOLM-13 cells) [nM]	pIC50 (NCI-H1155 cells)	small molecule-mediated targeted degradation of GSPT1 (GSPT1)	sensitization of AML cells to GSPT1 degraders by FLT3 inhibition (MOLM-13 cells; with or without 20 nM gilteritinib, 3 days)
O=C1CCC(N2Cc3cc(NC[C@H]4C[C@H](n5cc(-c6ccc(F)c(C(F)F)n6)c(C6CC6)n5)C4)ccc3C2=O)C(=O)N1 (stereo partly drawn) [GS-802, 3-(5-(((Trans-3-(3-cyclopropyl-4-(6-(difluoromethyl)-5-fluoropyridin-2-yl)-1H-pyrazol-1-yl)cyclobutyl)methyl)amino)-1-oxoisoindolin-2-yl)piperidine-2,6-dione]	–	–	7.00 to 8.00	–	7.00 to 8.00	targeted degradation of GSPT1	–
O=C1CCC(N2Cc3cc(NC[C@H]4C[C@H](n5cc(-c6ncc(F)c7cccnc67)c(C6CC6)n5)C4)ccc3C2=O)C(=O)N1 (stereo partly drawn) [GS-788, 3-(5-(((Trans-3-(3-cyclopropyl-4-(5-fluoro-1,7-naphthyridin-8-yl)-1H-pyrazol-1-yl)cyclobutyl)methyl)amino)-1-oxoisoindolin-2-yl)piperidine-2,6-dione]	> 8.00	< 10	> 8.00	< 10	–	targeted degradation of GSPT1	–
Cn1ncc2ccc(-c3cn([C@H]4C[C@H](CNc5ccc6c(c5)C(=O)N(C5CCC(=O)NC5=O)C6=O)C4)nc3C3CC3)nc21 (stereo partly drawn) [GS-729, 5-(((Trans-3-(3-cyclopropyl-4-(1-methyl-1H-pyrazolo[3,4-b]pyridin-6-yl)-1H-pyrazol-1-yl)cyclobutyl)methyl)amino)-2-(2,6-dioxopiperidin-3-yl)isoindoline-1,3-dione]	7.00 to 8.00	< 10	7.00 to 8.00	< 10	–	targeted degradation of GSPT1	–
Cc1nc(-c2cn([C@H]3C[C@H](CNc4ccc5c(c4)CN(C4CCC(=O)NC4=O)C5=O)C3)nc2C2CC2)ccc1F (stereo partly drawn) [GS-731, 3-(5-(((Trans-3-(3-cyclopropyl-4-(5-fluoro-6-methylpyridin-2-yl)-1H-pyrazol-1-yl)cyclobutyl)methyl)amino)-1-oxoisoindolin-2-yl)piperidine-2,6-dione]	> 8.00	< 10	7.00 to 8.00	< 10	–	targeted degradation of GSPT1	–
